Values quoted from earlier work as cited in paper PMC5278571, “Optimal doses of caspofungin during continuous venovenous hemodiafiltration in critically ill patients” (Critical Care, 2017).

What was measured:
Conditions in all cases: murine model of disseminated candidiasis; cited from earlier work
[1] = test system: Candida albicans
Description: (§1) Taking into account a MIC of 0.1 mg/L [4], and using the target pharmacokinetics/pharmacodynamics (PK/PD) described for micafungin, we would have reac ...

[2] = test system: C. parapsilosis
Description: as §1

[3] = test system: Candida glabrata
Description: as §1

micafungin
AUC/MIC associated with 1 log kill/24 h [1]: 865 | AUC/MIC associated with 1 log kill/24 h [2]: 1185 | AUC/MIC associated with 1 log kill/24 h [3]: 450
